For series [1], the system named is PC-3 prostate cancer cells. As to the kind of experiment: FMCA cancer cell killing effect on PC-3 prostate cancer cells. Type of series: cell-based, human. The conditions noted are these: PC-3, 3 days.
Procedure: The human prostate adenocarcinoma, PC-3, cultured in a 50/50 mixture of HAM's F-12K and RPMI-1640. […] All media were supplemented with 10% heat-inactivated fetal calf serum (FCS), 2 mM glutamine, 100 μg/ml streptomycin and 100 IE/ml penicillin (all from Sigma Aldrich Co, St Louis, Mo., USA). All cell lines were incubated at 37° C. in humidified air containing 5% CO2.
The FMCA method is based on measurement of fluorescence generated from hydrolysis of fluorescein diacetate (FDA) to fluorescein by cells with intact plasma membranes. After above mentioned incubation for 3 days, the medium was removed by aspiration. […] The plates were incubated for 45 minutes and the generated fluorescence from each well was measured in a 96-well scanning fluorometer. The fluorescence is proportional to the number of intact cells in the well. Quality criteria for a successful analysis included a fluorescence signal in the control wells of more than five times of the mean blank value, a mean co-efficient of variation (CV) in the control wells of less than 30%.
The samples were 5-fold serially diluted in 6 steps starting from the concentration of 100 μg/ml, and incubated with PC-3 prostate cancer cells for 3 days. Then the cells were stained and read by the FMCA method.
PC-3 cells were exposed for 3 days at pre-determined concentrations of G3 and docetaxel separately and in combination as shown on the graph. […]
The next series has as its system HL-60 AML cells. As to the kind of experiment: FMCA cancer cell killing effect on HL-60 AML cells. Type of series: cell-based, human. The conditions noted are these: HL-60, 3 days, pre-determined concentrations, alone or combined; FIG. 7.
Series [2] can be described thus: Detection of vitamin D3 in the water phase (DiaSorin Liaison). Type of series: physicochemical. The conditions noted are these: 50% cholesterol and 50% vitamin D3 membrane, assay has about one percent cross-reactivity with vitamin D3. The protocol:
Samples with cholecalciferol (vitamin D3) incorporated in G3 particles were analysed at a University Hospital Laboratory on a Liaison automatic instrument. Although the assay (DiaSorin Liaison) is designed to measure 25-HO-D3 it has about one percent cross-reactivity with non-hydroxylated vitamin D3.
G3 particles were formed using 50% cholesterol and 50% vitamin D3 to form the lipid membrane. Quil A was added into the water phase to generate the G3 particles (for details, please refer to Example 1). 100% Cholesterol and 100% Vitamin D3 in water were used as the controls. Samples with vitamin D3 incorporated in G3 particles were analysed at the Uppsala University Hospital Laboratory on a DiaSorin Liaison automatic instrument.

Procedure for HL-60 AML cells: All media were supplemented with 10% heat-inactivated fetal calf serum (FCS), 2 mM glutamine, 100 μg/ml streptomycin and 100 IE/ml penicillin (all from Sigma Aldrich Co, St Louis, Mo., USA). All cell lines were incubated at 37° C. in humidified air containing 5% CO2.
The FMCA method is based on measurement of fluorescence generated from hydrolysis of fluorescein diacetate (FDA) to fluorescein by cells with intact plasma membranes. After above mentioned incubation for 3 days, the medium was removed by aspiration. After one wash with PBS, 100 μl/well of FDA dissolved in a physiological buffer (10 μg/ml) was added. The plates were incubated for 45 minutes and the generated fluorescence from each well was measured in a 96-well scanning fluorometer. The fluorescence is proportional to the number of intact cells in the well. Quality criteria for a successful analysis included a fluorescence signal in the control wells of more than five times of the mean blank value, a mean co-efficient of variation (CV) in the control wells of less than 30%.
The samples were 5-fold serial diluted in 6 steps starting from 100 μg/ml, and incubated or 3 days with HL-60 AML cells f. Then the cells were stained and read by the FMCA method.
HL-60 AML cells were exposed for 3 days at pre-determined concentrations of G3 and cytarabine separately and in combination of these two as shown on FIG. 7. […]

`CO[C@H]1C(=O)[C@]2(C)[C@@H](OC)C[C@H]3OC[C@@]3(OC(C)=O)[C@H]2[C@H](OC(=O)c2ccccc2)[C@]2(O)C[C@H](OC(=O)[C@H](O)[C@@H](NC(=O)OC(C)(C)C)c3ccccc3)C(C)=C1C2(C)C` [Cabazitaxel, cabazitaxel] had an IC50 in series [1] (Homo sapiens, 72 h, cabazitaxel from 100 μM, alone or with G3 fixed 1 μM, FIG. 11) of 25.5 µM.

`Nc1ccn([C@@H]2O[C@H](CO)[C@@H](O)[C@@H]2O)c(=O)n1` [cytarabine]: the cells killed in the series with HL-60 AML cells stood at 55%.

`CC(=O)O[C@@]12CO[C@@H]1C[C@H](O)[C@@]1(C)C(=O)[C@H](O)C3=C(C)[C@@H](OC(=O)[C@H](O)[C@@H](NC(=O)OC(C)(C)C)c4ccccc4)C[C@@](O)([C@@H](OC(=O)c4ccccc4)[C@H]21)C3(C)C` [docetaxel]: the cells killed in series [1] (pre-determined concentrations, alone or combined, FIG. 10) is 2%.

Turning to `C=C1CC[C@H](O)C/C1=C/C=C1\CCC[C@]2(C)[C@@H]([C@H](C)CCCC(C)C)CC[C@@H]12` [vitamin D3 control, cholecalciferol], in series [2], the “vitamin D3 detected” value is recorded as “only trace amount”.
